Test results as given in patent US11305012B2, “Binding molecules specific for HER3 and uses thereof” (MedImmune, LLC, priority 2013, dated 2022).

Tests used:
[1] = system: human MCF-7 breast cancer xenograft; assay: Orthotopic human MCF-7 breast cancer xenograft model; format: in vivo, mouse; conditions: MCF-7 orthotopic, 10 mg/kg
Procedure: Human MCF-7 breast cancer cells were maintained at 37° C. in a 5% CO2 incubator in Optimem medium containing glutamax, 2.4/L sodium bicarbonate, Hepes and 5% fetal bovine serum. Orthotopic xenografts were established by injecting 5×10^6 cells per mouse (suspended in 50% matrigel) into the mammary fat pad on the right flank of 4 to 6-week-old athymic nu/nu mice. Estrogen pellets (0.36 mg) were placed under the skin of the left flank 1-2 days before cell injection. […] Paclitaxel was administered intravenously at 10 mg per kilogram body weight. Caliper measurements were used to calculate tumor volumes using the formula: tumor volume=π÷6(length×width×width) • for tumors grown in mice.

[2] = system: HER3, pHER3 and pAKT in SW620, SW480, Colo205, LOVO, HCT15, Caco-2; assay: HRG-stimulated HER3 signaling in CRC tumor cell lines (Western); format: cell-based, human; conditions: antibodies 10 μg/mL, gefitinib 5 μM, HRG 50 ng/mL
Procedure: In the presence of the HER3 ligand heregulin (HRG), HER3 heterodimerizes with EGFR or HER2, which leads to phosphorylation of HER3 and transmission of an oncogenic signal via phosphoinositide 3 kinase (PI3K) and protein kinase B (PKB), also known as AKT. A collection of CRC models were characterized to determine which receptor tyrosine kinase, EGFR or HER2, is the major driver of signaling through HER3. […] Briefly, cells were seeded into 24-well plates at a density of 1.5×10^5 cells per well. […] After 5-6 hours of incubation at 37° C., HRG was added at 50 ng/mL into one set of cells for 15 minutes at 37° C. All cells were then washed with cold PBS and lysed by the addition of 60 μL of 2×SDS (sodium dodecyl sulfate) sample buffer (Invitrogen). Lysates were transferred to 1.5 mL tubes and boiled for 5 minutes followed by chilling on ice for 2 minutes. Equal volumes (20 μL) of protein samples were resolved in NuPAGE Novex Bis-Tris gels (Invitrogen) before transfer to polyvinylidene fluoride (PVDF) membranes (Invitrogen). […] After washing, protein bands were detected on X-ray film by using SuperSignal West Pico Chemiluminescent Substrate (Pierce/Thermo Scientific).

BT-474 xenografts = assay: Orthotopic human BT-474 breast cancer xenograft model; format: in vivo, mouse; conditions: BT-474 orthotopic, antibodies 30 mg/kg, lapatinib 100 mg/kg
Procedure: Orthotopic xenografts were established by injecting 1×10^7 cells per mouse (suspended in 50% matrigel) into the mammary fat pad on the right flank of 4 to 6-week-old athymic nu/nu mice. Estrogen pellets (0.36 mg) were placed under the skin of the left flank 1-2 days before cell injection. […] Lapatinib was administered by oral gavaging at 100 mg per kilogram body weight. Caliper measurements were used to calculate tumor volumes using the formula: tumor volume=π÷6(length×width×width) • for tumors grown in mice.

MDA-MB-361 xenografts = assay: Orthotopic human MDA-MB-361 breast cancer xenograft model; format: in vivo, mouse; conditions: trastuzumab and rhuMAb 2C4 10 mg/kg, lapatinib 100 mg/kg twice daily, 2C2-YTE 30 mg/kg
Procedure: Orthotopic xenografts were established by injecting 5×10^6 cells per mouse (suspended in 50% matrigel) into the mammary fat pad on the right flank of 4 to 6-week-old athymic nu/nu mice. Estrogen pellets (0.36 mg) were placed under the skin of the left flank 1-2 days before cell injection. […] Lapatinib was administered by oral gavaging at 100 mg per kilogram body weight. Caliper measurements were used to calculate tumor volumes using the formula: tumor volume=π÷6(length×width×width) • for tumors grown in mice.

[3] = system: JIMT-1 breast cancer xenografts; assay: Orthotopic human JIMT-1 breast cancer xenograft model; format: in vivo, mouse
Procedure: Orthotopic xenografts were established by injecting 5×10^6 cells per mouse (suspended in 50% matrigel) into the mammary fat pad on the right flank of 4 to 6-week-old athymic nu/nu mice. […] Treatment with antibodies were administered starting at day 8 post-implantation of JIMT-1 cells. […]

[4] = 10 mpk (each), day 32 post-implantation of JIMT-1 cells, vs control IgG1

In the case of `CC(=O)O[C@H]1C(=O)[C@@]2(C)[C@H]([C@H](OC(=O)c3ccccc3)[C@]3(O)C[C@H](OC(=O)[C@H](O)[C@@H](NC(=O)c4ccccc4)c4ccccc4)C(C)=C1C3(C)C)[C@]1(OC(C)=O)CO[C@@H]1C[C@@H]2O` [Paclitaxel, paclitaxel, reference compound], the “anti-tumor efficacy (in words)” value [1] is reported as “clear anti-tumor efficacy”.

In the case of `COc1cc2ncnc(Nc3ccc(F)c(Cl)c3)c2cc1OCCCN1CCOCC1` [gefitinib], the “effect on HRG ligand-dependent signaling (HER3, pHER3, pAKT; in words)” value [2] is reported as “no effect”.

`CS(=O)(=O)CCNCc1ccc(-c2ccc3ncnc(Nc4ccc(OCc5cccc(F)c5)c(Cl)c4)c3c2)o1` [lapatinib, reference compound] was tested, and the “anti-tumor efficacy (in words)” value (BT-474 xenografts) was “tumor stasis” and the “anti-tumor efficacy (in words)” value (MDA-MB-361 xenografts) was “showed anti-tumor efficacy”.

“pertuzumab [RhuMAb 2C4, reference compound]” was tested, and the “% TGI” value [3, 4] was 13.64%, the “% dTGI” value [3, 4] was 17.42% and the “anti-tumor efficacy (in words)” value ([3]; JIMT-1, 10 mg/kg (each)) was “did not result in any significant reduction”. For the same compound, the “effect on HRG ligand-dependent signaling (HER3, pHER3, pAKT; in words)” value [2] was “inhibit HRG ligand-dependent signaling” and the “anti-tumor efficacy (in words)” value (MDA-MB-361 xenografts) was “showed anti-tumor efficacy”.
